The record followed here is ChEMBL document CHEMBL3826960, “Robust design of some selective matrix metalloproteinase-2 inhibitors over matrix metalloproteinase-9 through in silico/fragment-based lead identification and de novo lead modification: Syntheses and biological assays” (Bioorg Med Chem, 2016).

Assay [1] addresses Matrix metalloproteinase-9 (Homo sapiens, UniProt P14780).
Description: Inhibition of human recombinant MMP9 by colorimetric analysis
Assay [2] deals with T1, Interstitial collagenase (Homo sapiens, UniProt P03956).
T1 sequence (P03956 whole entry): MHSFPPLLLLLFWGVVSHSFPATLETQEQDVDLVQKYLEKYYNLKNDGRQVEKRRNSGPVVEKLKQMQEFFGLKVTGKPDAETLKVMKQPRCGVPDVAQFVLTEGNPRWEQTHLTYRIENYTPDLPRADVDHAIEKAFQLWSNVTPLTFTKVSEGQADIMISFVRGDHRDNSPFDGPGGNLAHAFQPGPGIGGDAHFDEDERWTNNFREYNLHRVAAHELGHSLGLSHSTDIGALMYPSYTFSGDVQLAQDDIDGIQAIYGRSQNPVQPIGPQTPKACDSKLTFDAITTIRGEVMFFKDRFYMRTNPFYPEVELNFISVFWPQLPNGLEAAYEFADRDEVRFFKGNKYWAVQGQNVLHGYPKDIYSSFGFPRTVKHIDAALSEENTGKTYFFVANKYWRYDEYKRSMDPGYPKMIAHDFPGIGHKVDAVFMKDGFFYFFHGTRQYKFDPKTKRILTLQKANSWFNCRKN
Description: Inhibition of human recombinant MMP1 by colorimetric analysis

Assay [3] deals with A549. The experiment in a line: cells. Format: functional. The conditions noted are these: Homo sapiens, A549, 48 h.
In assay [4] the target is Neutrophil collagenase (Homo sapiens, UniProt P22894).
Chain of Neutrophil collagenase (P22894 whole entry): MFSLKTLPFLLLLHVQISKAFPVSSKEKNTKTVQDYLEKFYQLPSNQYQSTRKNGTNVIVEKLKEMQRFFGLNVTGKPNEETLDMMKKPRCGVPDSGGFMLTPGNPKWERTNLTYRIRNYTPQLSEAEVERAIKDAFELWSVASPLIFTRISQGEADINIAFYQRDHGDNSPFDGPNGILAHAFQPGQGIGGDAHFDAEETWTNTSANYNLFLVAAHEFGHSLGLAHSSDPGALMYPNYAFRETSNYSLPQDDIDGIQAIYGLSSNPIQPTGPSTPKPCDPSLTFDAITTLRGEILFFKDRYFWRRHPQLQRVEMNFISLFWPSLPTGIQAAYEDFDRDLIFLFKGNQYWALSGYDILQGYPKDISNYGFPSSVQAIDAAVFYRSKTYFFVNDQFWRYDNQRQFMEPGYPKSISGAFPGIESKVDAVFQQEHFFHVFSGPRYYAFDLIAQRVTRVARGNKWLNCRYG
Description: Inhibition of human recombinant MMP8 by colorimetric analysis
Assay [5] deals with A549. The experiment in a line: cells. Format: functional. The settings on record: Homo sapiens, A549, 48 h. This is another data set of the same source.
In assay [6] the test system is A549. The experiment in a line: cells. The conditions noted are these: Homo sapiens, A549, 48 h. The assay is classed as functional. This is another data set of the same source.
Description: Cytotoxicity against human A549 cells assessed as cell viability at 100 uM after 48 hrs by MTT assay
In assay [7] the test system is A549. The experiment in a line: cells. The conditions noted are these: Homo sapiens, A549, 48 h. Format: functional. This is another data set of the same source.
Description: Cytotoxicity against human A549 cells assessed as cell viability at 300 uM after 48 hrs by MTT assay
Assay [8] relates to A549. The experiment in a line: cells. The assay is classed as functional. The conditions noted are these: Homo sapiens, A549, 24 h.
Description: Reduction of MMP2 expression in human A549 cells at 50 uM after 24 hrs by confocal microsocopy
In assay [9] the target is Matrix metalloproteinase-14 (Homo sapiens, UniProt P50281).
Description: Inhibition of human recombinant MMP14 by colorimetric analysis
Assay [10] addresses Macrophage metalloelastase (Homo sapiens, UniProt P39900).
Description: Inhibition of human recombinant MMP12 by colorimetric analysis
Assay [11] deals with A549. The experiment in a line: cells. Format: functional, cell-based. The conditions noted are these: Homo sapiens, A549, 48 h.
Description: Cytotoxicity against human A549 cells assessed as cell viability after 48 hrs by MTT assay

Some results are limits rather than exact numbers.

Chain of Matrix metalloproteinase-9 (P14780 whole entry): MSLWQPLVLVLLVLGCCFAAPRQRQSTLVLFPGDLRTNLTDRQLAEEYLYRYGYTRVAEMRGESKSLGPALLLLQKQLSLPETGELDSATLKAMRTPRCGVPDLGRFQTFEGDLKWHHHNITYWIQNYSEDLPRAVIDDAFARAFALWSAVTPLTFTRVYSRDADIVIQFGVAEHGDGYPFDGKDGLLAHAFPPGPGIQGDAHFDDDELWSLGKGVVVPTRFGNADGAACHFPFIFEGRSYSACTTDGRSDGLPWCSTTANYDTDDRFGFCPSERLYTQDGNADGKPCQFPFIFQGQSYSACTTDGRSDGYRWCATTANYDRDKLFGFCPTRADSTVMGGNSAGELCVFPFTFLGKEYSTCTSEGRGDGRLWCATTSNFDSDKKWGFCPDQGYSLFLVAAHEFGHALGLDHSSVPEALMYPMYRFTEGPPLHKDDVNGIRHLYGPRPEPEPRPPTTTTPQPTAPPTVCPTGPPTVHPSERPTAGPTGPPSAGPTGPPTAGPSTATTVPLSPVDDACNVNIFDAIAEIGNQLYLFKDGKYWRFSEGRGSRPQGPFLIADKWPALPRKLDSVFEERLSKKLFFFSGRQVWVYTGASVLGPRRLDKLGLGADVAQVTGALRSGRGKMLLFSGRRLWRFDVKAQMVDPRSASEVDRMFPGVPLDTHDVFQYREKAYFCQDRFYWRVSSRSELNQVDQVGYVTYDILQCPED
Chain of Macrophage metalloelastase (P39900 whole entry): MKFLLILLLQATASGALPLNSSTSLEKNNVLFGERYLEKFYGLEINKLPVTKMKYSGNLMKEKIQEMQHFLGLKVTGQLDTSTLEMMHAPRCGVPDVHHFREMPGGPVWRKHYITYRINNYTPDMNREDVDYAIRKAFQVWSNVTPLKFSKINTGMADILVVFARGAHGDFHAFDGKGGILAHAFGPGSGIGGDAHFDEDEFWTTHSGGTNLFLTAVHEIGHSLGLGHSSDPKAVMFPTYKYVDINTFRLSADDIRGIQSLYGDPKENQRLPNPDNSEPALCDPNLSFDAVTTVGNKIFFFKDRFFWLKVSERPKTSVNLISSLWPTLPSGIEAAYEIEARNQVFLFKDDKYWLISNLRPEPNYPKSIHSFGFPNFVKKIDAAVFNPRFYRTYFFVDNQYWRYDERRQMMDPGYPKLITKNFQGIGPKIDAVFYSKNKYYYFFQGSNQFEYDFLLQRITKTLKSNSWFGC

Take `CCCCCNC(=O)CC[C@H](NS(=O)(=O)c1ccc(-c2ccc(Br)cc2)cc1)C(=O)O`: in assay [1], the IC50 (in general, the concentration that gives 50% inhibition) was determined as 5.49 µM.

As to `O=C(CC[C@H](NS(=O)(=O)c1ccc(-c2ccccc2)cc1)C(=O)O)NCc1ccc(Cl)cc1`, the IC50 in assay [1] is 2.09 µM.

Regarding `O=C(CC[C@H](NS(=O)(=O)c1ccc(-c2ccccc2)cc1)C(=O)O)NCc1ccccc1`, the IC50 in assay [2] was more than 10 µM; in assay [4] it was 0.0213 µM; in assay [1], 0.492 µM; in assay [9], 0.427 µM; in [10] it was 0.0532 µM. The viability – broadly, the share of living cells, or the viability signal relative to a control – at 200 µM in assay [3] was determined as 95.8%. In addition, the viability at 100 µM in [5] is 98.3%; in assay [6] it was 80%. The viability at 300 µM in assay [7] was 66%. Besides, the inhibition (in general, the share of the control response that was lost under treatment) at 50 µM in assay [8] is not above 60.5%.

With `CCCCCNC(=O)CC[C@H](NS(=O)(=O)c1ccc(-c2ccccc2)cc1)C(=O)O`, the IC50 in assay [2] was more than 10 µM; in assay [4], 0.059 µM; in assay [1], 5.72 µM; in assay [9], 1 µM; in [10], 0.0523 µM. This molecule displayed a viability at 100 µM in assay [6] of 80%. Further, the viability at 300 µM in assay [7] was found to be 61%. Further, the inhibition at 50 µM in [8] is not above 52.1%.

In assay [1], `O=C(CC[C@H](NS(=O)(=O)c1ccc(-c2ccc(Br)cc2)cc1)C(=O)O)NCc1ccccc1` came in with an IC50 of 5.99 µM.

For the molecule `O=C(CC[C@H](NS(=O)(=O)c1ccc(-c2ccccc2)cc1)C(=O)O)NCc1ccccc1Cl`, the concentration for half-maximal inhibition (IC50) in assay [2] was more than 10 µM; in [4] it was 0.039 µM; in assay [1], 0.88 µM; in [9] it was 1.61 µM; in [10] it was 0.063 µM. In [6], this molecule showed a viability at 100 µM of 80%. Moreover, in [7], the viability at 300 µM stood at 68%.

On to `CCCCNC(=O)CC[C@H](NS(=O)(=O)c1ccc(-c2ccccc2)cc1)C(=O)O`, for which the IC50 was more than 10 µM in assay [2]; 0.0596 µM in assay [4]; 0.715 µM in assay [1]; 4.64 µM in [9]; 0.071 µM in assay [10]. The molecule also yielded a viability at 100 µM in assay [6] of 80%. In assay [7], the viability at 300 µM was determined as 59%.

Turning to `CCCNC(=O)CC[C@H](NS(=O)(=O)c1ccc(-c2ccccc2)cc1)C(=O)O`, the concentration for half-maximal inhibition (IC50) in [2] is more than 10 µM; in assay [4], 0.0453 µM; in assay [1], 11.3 µM; in assay [9], 7.78 µM.

For `CCCCCCNC(=O)CC[C@H](NS(=O)(=O)c1ccc(-c2ccccc2)cc1)C(=O)O`, the half-maximal inhibitory concentration (IC50) in assay [2] is more than 10 µM; in assay [4], 0.0814 µM; in [1], 5.88 µM; in assay [9], 0.807 µM; in [10], 0.0961 µM. Further, the viability at 100 µM in assay [6] worked out at 80%. The molecule also yielded a viability at 300 µM in assay [7] of 65%.

Regarding `O=C(CC[C@H](NS(=O)(=O)c1ccc(-c2ccccc2)cc1)C(=O)O)NC1CCCCC1`, the IC50 in assay [2] was more than 10 µM; in assay [4] it was 0.0648 µM; in assay [1], 0.636 µM; in assay [9], 2.41 µM; in assay [10], 0.0732 µM. This molecule also gave a viability at 100 µM in assay [6] of 80%. The molecule also gave a viability at 300 µM in assay [7] of 70%.

In the case of `CC(C)CNC(=O)CC[C@H](NS(=O)(=O)c1ccc(-c2ccccc2)cc1)C(=O)O`, the half-maximal inhibitory concentration (IC50) in assay [2] is more than 10 µM; in assay [4], 0.226 µM; in assay [1] it was 8.17 µM; in assay [9], 8.81 µM; in assay [10], 0.247 µM. In [6], the viability at 100 µM is 80%. In assay [7], this molecule came in with a viability at 300 µM of 79%.

In the case of `O=C(CC[C@H](NS(=O)(=O)c1ccc(-c2ccccc2)cc1)C(=O)O)NCc1cc(C(F)(F)F)cc(C(F)(F)F)c1`, the IC50 in [2] was more than 10 µM; in assay [4], 0.228 µM; in assay [1], 6.74 µM; in assay [9], 6.31 µM; in assay [11] it was 270 µM; in [10], 0.462 µM. Also, the viability at 200 µM in assay [3] was 96.1%. Moreover, the values for the viability at 100 µM in assay [5] and in assay [6] were 98.5% and 80%, respectively. Moreover, the viability at 300 µM in assay [7] was 43%. This molecule also showed an inhibition at 50 µM in assay [8] not above 78.9%.

For the molecule `O=C(CC[C@H](NS(=O)(=O)c1ccc(-c2ccccc2)cc1)C(=O)O)Nc1ccccc1`, the IC50 in [2] was more than 10 µM; in assay [4] it was 0.0562 µM; in assay [1], 4.28 µM; in assay [9], 1.39 µM; in assay [10], 0.296 µM. The same molecule registered a viability at 100 µM in [6] of 80%. In addition, in assay [7], the viability at 300 µM is 78%.

In turn, `CC(C)NC(=O)CC[C@H](NS(=O)(=O)c1ccc(-c2ccccc2)cc1)C(=O)O` yielded an IC50 in assay [1] of 7.41 µM. In other words, the single-digit micromolar range.

In assay [1], `NC(=O)CC[C@H](NS(=O)(=O)c1ccc(-c2ccccc2)cc1)C(=O)O` yielded an IC50 of 7.43 µM.

With `O=C(CC[C@H](NS(=O)(=O)c1ccc(-c2ccccc2)cc1)C(=O)O)NCCc1ccccc1`, the IC50 in assay [2] was more than 10 µM; in assay [4] it was 0.104 µM; in assay [1] it was 7 µM; in [9], 6.88 µM; in [10] it was 0.297 µM.

Molecule `CNC(=O)CC[C@H](NS(=O)(=O)c1ccc(-c2ccccc2)cc1)C(=O)O` had a half-maximal inhibitory concentration (IC50) in assay [1] of 38.4 µM.

In the case of `O=C(CC[C@H](NS(=O)(=O)c1ccc(-c2ccccc2)cc1)C(=O)O)NCc1ccc(F)cc1`, the IC50 in assay [2] was more than 10 µM; in assay [4], 0.047 µM; in assay [1], 1.16 µM; in assay [9], 5.42 µM; in assay [10], 0.084 µM. In assay [6], the viability at 100 µM was determined as 80%. Moreover, the viability at 300 µM in assay [7] turned out to be 85%.

With `COc1ccc(CNC(=O)CC[C@H](NS(=O)(=O)c2ccc(-c3ccccc3)cc2)C(=O)O)cc1`, in assay [1], the 50% inhibitory concentration (IC50) stood at 1.82 µM.

On to `CCNC(=O)CC[C@H](NS(=O)(=O)c1ccc(-c2ccccc2)cc1)C(=O)O`, for which, in assay [1], the half-maximal inhibitory concentration (IC50) is 8.71 µM.

The molecule `CC(C)(C)NC(=O)CC[C@H](NS(=O)(=O)c1ccc(-c2ccccc2)cc1)C(=O)O` came in with an IC50 in assay [1] of 8.5 µM.
